We go through eleven compounds from ChEMBL document CHEMBL1201862, “PubChem BioAssay data set” (2004).

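All cell lines were grown in 96-well plates and treated with compound for 48 hours. At the GI50, growth is halved.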 Activity calls are given as the source filed them. Rule as the data show it: active = GI50 up to about 1.1 µM and inactive = higher.

Test systems include SNB-19; Malme-3M; SR; K562; HCT-15; HL-60; UACC-62; COLO 205; T47D; Hs-578T; UACC-257; MDA-N; A498; SW-620; TK-10; OVCAR-3; SK-MEL-28; A549; LOX IMVI; MCF7.
What all share (assay): NCI anticancer screen, dose series, 48 h

As to `CCN(CC)C(=S)SS(=O)(=O)c1ccc(NC(C)=O)cc1`, the GI50 in the test on SNB-19 was 38.1 µM (inactive); in the test with Malme-3M it was 15.9 µM (inactive); in the test on SR, 0.0226 µM (active); in the test with K562, 33.9 µM (inactive); in the test with HCT-15 it was 30.9 µM; with HL-60, 23.9 µM (inactive). Moreover, the GI50 in the test on UACC-62 was 19.9 µM (inactive); in the test with COLO 205, 25.6 µM (inactive); in the test on T47D, 24.9 µM (inactive); with Hs-578T, 45 µM (inactive); in the test with UACC-257, 21.8 µM (inactive); with MDA-N, 27.6 µM (inactive). The GI50 is > 55.6 µM (inactive) with A498; 16.7 µM (inactive) with SW-620; 32.6 µM (inactive) in the test on TK-10; 31.7 µM (inactive) in the test on OVCAR-3; 17.3 µM (inactive) with SK-MEL-28; 2.21 µM (inactive) with A549. In the test with LOX IMVI, the GI50 is 15.9 µM (inactive).

With `Cc1c(/C=N\NC(=S)NCCNC(=S)N/N=C\c2c(C)n(C)n(-c3ccccc3)c2=O)c(=O)n(-c2ccccc2)n1C`, the GI50 in the test on SNB-19 was > 100 µM (inactive); in the test on Malme-3M it was > 100 µM (inactive); with SR, > 100 µM (inactive); in the test on HCT-15, greater than 100 µM; with UACC-62, > 100 µM (inactive); with COLO 205 it was > 100 µM (inactive). The GI50 in the test on T47D, in the test with Hs-578T, with UACC-257, in the test on A498, in the test on SW-620 and with TK-10 was > 100 µM (inactive) in each case. Moreover, the GI50 in the test on OVCAR-3 and in the test with A549 was > 100 µM (inactive) throughout.

Take `Cc1ccc(S(=O)(=O)NC(=O)Nc2ccc(C(=O)O)cc2)cc1`: the GI50 in the test on MCF7 is > 100 µM (inactive); in the test on SNB-19 it was > 100 µM (inactive); in the test on Malme-3M, > 100 µM (inactive); in the test on K562, > 100 µM (inactive); in the test on HCT-15, greater than 100 µM; in the test on HL-60, > 100 µM (inactive). For the same compound, the GI50 in the test with UACC-62, with COLO 205, with T47D, in the test with Hs-578T, in the test on UACC-257 and in the test with MDA-N was > 100 µM (inactive) each time. The GI50 with SW-620, in the test with TK-10, in the test on SK-MEL-28, with A549 and in the test with LOX IMVI was > 100 µM (inactive) in each case.

Take `CCCC/C=C1\CCC(CN2CCOCC2)C1=O` (centres undefined): the GI50 in the test on MCF7 is 1.53 µM (inactive); with SNB-19 it was 15.8 µM (inactive); with Malme-3M, 2.19 µM (inactive); with SR, 1.73 µM (inactive); in the test on K562, 1.19 µM (inactive); with HL-60 it was 1.57 µM (inactive). Moreover, the GI50 in the test with UACC-62 is 6.4 µM (inactive); with COLO 205, 2.97 µM (inactive); in the test with T47D, 5.19 µM (inactive); in the test with UACC-257 it was 5.28 µM (inactive); with MDA-N it was 10.7 µM (inactive); with A498, 14.1 µM (inactive). Also, the GI50 in the test on SW-620 is 2.1 µM (inactive); in the test on TK-10 it was 9.31 µM (inactive); with OVCAR-3, 5.32 µM (inactive); in the test on SK-MEL-28, 3.24 µM (inactive); in the test on A549 it was 20.4 µM (inactive); with LOX IMVI, 1.24 µM (inactive).

Take `COc1cc2c(cc1OCCCCCCCCN1C(=O)c3cccc4cccc(c34)C1=O)N=C[C@@H]1CCCN1C2=O`: the GI50 with MCF7 is 3.71 µM (inactive); in the test on SNB-19 it was 35.3 µM (inactive); in the test with Malme-3M, 21 µM (inactive); in the test with SR, 4.07 µM (inactive); in the test on K562, 3.87 µM (inactive); in the test on HCT-15, 12.8 µM. Besides, the GI50 in the test with HL-60 was 13.8 µM (inactive); in the test with UACC-62 it was 13.5 µM (inactive); with COLO 205, 4.71 µM (inactive); with T47D it was 73.6 µM (inactive); in the test with Hs-578T, 22.1 µM (inactive); in the test on UACC-257 it was 26.2 µM (inactive). Besides, the GI50 is 18.7 µM (inactive) in the test on SW-620; 29.7 µM (inactive) in the test with TK-10; 11.1 µM (inactive) with OVCAR-3; 17.9 µM (inactive) with SK-MEL-28; 20 µM (inactive) in the test with A549; 6.89 µM (inactive) with LOX IMVI.

Take `C/C(=N\NS(=O)(=O)c1ccc(C)cc1)P(=O)(O)O`: the GI50 in the test with MCF7 was > 100 µM (inactive); in the test on SNB-19, > 100 µM (inactive); in the test with Malme-3M it was > 100 µM (inactive); in the test on K562, > 100 µM (inactive); in the test with HCT-15, greater than 100 µM; in the test with UACC-62 it was > 100 µM (inactive). Further, the GI50 with COLO 205, in the test on T47D, with Hs-578T, with UACC-257, with MDA-N and with A498 was > 100 µM (inactive) in each case. For the same compound, the GI50 with SW-620, in the test with TK-10, with OVCAR-3, with SK-MEL-28, in the test on A549 and in the test with LOX IMVI was > 100 µM (inactive) each time.

With `NCCSc1nc2ccccc2s1`, the GI50 with MCF7 was 28.8 µM (inactive); in the test with SNB-19, 64.7 µM (inactive); in the test on Malme-3M it was 50.8 µM (inactive); with SR, 25.9 µM (inactive); in the test with K562, 10.6 µM (inactive); in the test with HCT-15, 42.9 µM. The GI50 in the test with HL-60 is 73.5 µM (inactive); in the test on UACC-62, 31.3 µM (inactive); in the test with COLO 205, > 100 µM (inactive); with Hs-578T, 32.1 µM (inactive); in the test on UACC-257 it was 47 µM (inactive); in the test with MDA-N it was 38.3 µM (inactive). In addition, the GI50 in the test on A498 is 32.9 µM (inactive); in the test with SW-620, 32.1 µM (inactive); in the test with TK-10 it was 24.9 µM (inactive); in the test with OVCAR-3 it was 38.6 µM (inactive); in the test on SK-MEL-28, > 100 µM (inactive); with A549 it was 48.3 µM (inactive). Also, the GI50 in the test with LOX IMVI is 30.7 µM (inactive).

As for `COC(=O)/C=C1/OC(c2ccccc2)=C(Br)C1=O`, the GI50 with MCF7 is 34.3 µM (inactive); in the test with SNB-19 it was 79.1 µM (inactive); with Malme-3M, 49 µM (inactive); with SR, 20.8 µM (inactive); with K562 it was 21.7 µM (inactive); with HCT-15 it was 10.6 µM. In addition, the GI50 in the test with HL-60 was 35.2 µM (inactive); with UACC-62 it was 20 µM (inactive); in the test with COLO 205, > 100 µM (inactive); with T47D, 45.3 µM (inactive); in the test on UACC-257 it was 73.3 µM (inactive); in the test on MDA-N, 42.1 µM (inactive). Besides, the GI50 with A498 is 70.8 µM (inactive); in the test on SW-620, 18.4 µM (inactive); in the test with TK-10 it was 80.5 µM (inactive); with OVCAR-3, > 100 µM (inactive); in the test with SK-MEL-28, 64.1 µM (inactive); in the test with LOX IMVI it was 24.3 µM (inactive).

Turning to `O=C1NCC2(CCNCC2)N1`, the GI50 in the test with MCF7 was > 100 µM (inactive); with SNB-19, > 100 µM (inactive); with Malme-3M, > 100 µM (inactive); with SR, > 100 µM (inactive); in the test on HCT-15, greater than 100 µM; in the test with HL-60 it was > 100 µM (inactive). The GI50 in the test on UACC-62, in the test on COLO 205, in the test with T47D, in the test on Hs-578T, in the test on UACC-257 and in the test on A498 was > 100 µM (inactive) in each case. The GI50 in the test with SW-620, in the test on TK-10, in the test on SK-MEL-28, in the test on A549 and in the test on LOX IMVI was > 100 µM (inactive) throughout.

As to `COc1ccc2[nH]cc(CCNC(=O)[C@H](Cc3ccccc3)NC(=O)[C@@H](NCC(F)(F)F)C(C)C)c2c1`, the GI50 in the test with MCF7 is 17.9 µM (inactive); with SNB-19 it was 28.6 µM (inactive); with Malme-3M, 21.6 µM (inactive); with SR, 36.2 µM (inactive); in the test with K562, 29.7 µM (inactive); in the test on HCT-15, 21.4 µM. For the same compound, the GI50 with HL-60 is 20.1 µM (inactive); in the test with UACC-62 it was 19.1 µM (inactive); with COLO 205 it was 17.9 µM (inactive); in the test on Hs-578T it was 18.6 µM (inactive); in the test on UACC-257 it was 19.7 µM (inactive); in the test with MDA-N it was 18.2 µM (inactive). For the same compound, the GI50 in the test with SW-620 is 28.5 µM (inactive); in the test on TK-10 it was 22 µM (inactive); in the test with OVCAR-3, 15.6 µM (inactive); in the test on SK-MEL-28, 17.2 µM (inactive); in the test with A549, 27 µM (inactive); with LOX IMVI, 22.1 µM (inactive).

Regarding `COc1c(O)cc(O)c2c(=O)cc(-c3ccccc3)oc12` [WOGONIN], the GI50 in the test on MCF7 was 35.6 µM (inactive); in the test with SNB-19, 58.7 µM (inactive); with Malme-3M, 85.3 µM (inactive); with SR it was 22.1 µM (inactive); in the test with K562 it was 25.1 µM (inactive); in the test with HCT-15, 35.1 µM. Moreover, the GI50 in the test with HL-60 is 21.5 µM (inactive); in the test on UACC-62, 35.1 µM (inactive); in the test on COLO 205, 64.3 µM (inactive); with Hs-578T, 18.7 µM (inactive); in the test on UACC-257, 87.9 µM (inactive); with MDA-N, 84.7 µM (inactive). Besides, the GI50 is 54.1 µM (inactive) with SW-620; 60.8 µM (inactive) in the test with TK-10; 24.5 µM (inactive) with OVCAR-3; > 100 µM (inactive) in the test on SK-MEL-28; 42.9 µM (inactive) in the test with A549; 22.4 µM (inactive) with LOX IMVI.
